Laboratory results: patent US7902226B2, “Dehalogeno-compounds” (Daiichi Pharmaceutical Co., Ltd., priority 2000, dated 2011)
In brackets after ≈: the same amount, converted by molar mass. Counter-ions that a name gives are not always drawn.

Assays:
[1] = system: E. coli, NIHJ; experiment: Antibacterial activity (MIC), standard method of the Japan Society of Chemotherapy; format: cell-based; settings: Escherichia coli
Protocol: (§1) Antibacterial activities of the compounds of this invention were measured in accordance to the standard method designated by the Japan Society of Chemotherapy, with the results shown as MIC values (microgram/ml) units in the following table. For comparison with the MIC values of the compounds of this invention, MIC values of levofloxacin (LVFX), ciprofloxacin (CPFX) and 7-[3-(R)-(1-aminocyclopropyl)pyrrolidin-1-yl]-6-fluoro-1-[2-(S)-fluoro-1-(R)-cyclopropyl]-8-methyl-1,4-dihydro-4-oxoquinoline-3-carboxylic acid (Reference drug 1), which is described in PCT/JP96/00208, are also shown in the table.

[2] = system: K. pneumoniae, Type 1; experiment: as above; format: cell-based; settings: Klebsiella pneumoniae, TYPE1
Protocol: as §1

[3] = system: Pr. vulgalis, 08601; experiment: as above; format: cell-based
Protocol: as §1

[4] = system: Ps. aeruginosa, 32104; experiment: as above; format: cell-based; settings: Pseudomonas aeruginosa
Protocol: as §1

[5] = system: Ps. aeruginosa, 32121; experiment: as above; format: cell-based; settings: Pseudomonas aeruginosa
Protocol: as §1

[6] = system: Ps. maltophilia, IID-1275; experiment: as above; format: cell-based; settings: Stenotrophomonas maltophilia, IID1275
Protocol: as §1

[7] = system: S. aureus, 209P; experiment: as above; format: cell-based; settings: Staphylococcus aureus
Protocol: as §1

[8] = system: S. aureus, 870307; experiment: as above; format: cell-based; settings: Staphylococcus aureus
Protocol: as §1

[9] = system: S. epidermidis, 56500; experiment: as above; format: cell-based; settings: Staphylococcus epidermidis
Protocol: as §1

[10] = system: S. flexneri, 2A 5503; experiment: as above; format: cell-based; settings: Shigella flexneri, 2A5503
Protocol: as §1

[11] = system: Ser. marcescens, 10100; experiment: as above; format: cell-based; settings: Serratia marcescens
Protocol: as §1

[12] = system: Str. faecalis, ATCC 19433; experiment: as above; format: cell-based; settings: Enterococcus faecalis, ATCC19433
Protocol: as §1

[13] = system: Str. pneumoniae J24; experiment: as above; format: cell-based; settings: Streptococcus pneumoniae
Protocol: as §1

[14] = system: Str. pyogenes, G-36; experiment: as above; format: cell-based; settings: Streptococcus pyogenes, G36
Protocol: as §1

## CNC1([C@@H]2CCN(c3ccc4c(=O)c(C(=O)O)cn([C@@H]5C[C@@H]5F)c4c3OC)C2)CC1 [Example 11, 1-[2-(S)-fluoro-1-(R)-cyclopropyl]-8-methoxy-7-[3-(R)-[1-(methylamino)cyclopropyl]pyrrolidin-1-yl]-1,4-dihydro-4-oxoquinoline-3-carboxylic acid]
[1]
  MIC: 0.006 µg/mL (≈ 0.0144 µM)
[2]
  MIC: 0.1 µg/mL (≈ 0.241 µM)
[3]
  MIC: 0.012 µg/mL (≈ 0.0289 µM)
[4]
  MIC: 0.2 µg/mL (≈ 0.481 µM)
[5]
  MIC: 0.1 µg/mL (≈ 0.241 µM)
[6]
  MIC: 0.2 µg/mL (≈ 0.481 µM)
[7]
  MIC: ≤ 0.003 µg/mL
[8]
  MIC: 0.05 µg/mL (≈ 0.12 µM)
[9]
  MIC: 0.012 µg/mL (≈ 0.0289 µM)
[10]
  MIC: 0.012 µg/mL (≈ 0.0289 µM)
[11]
  MIC: 0.2 µg/mL (≈ 0.481 µM)
[12]
  MIC: 0.05 µg/mL (≈ 0.12 µM)
[13]
  MIC: 0.006 µg/mL (≈ 0.0144 µM)
[14]
  MIC: 0.012 µg/mL (≈ 0.0289 µM)
other
  melting point: 213 to 215 °C

## Cc1c(N2CC[C@@H](C3(N)CC3)C2)cc(O)c2c(=O)c(C(=O)O)cn([C@@H]3C[C@@H]3F)c12 [Example 17, 7-[3-(R)-(1-aminocyclopropyl)pyrrolidin-1-yl]-1-[2-(S)-fluoro-1-(R)-cyclopropyl]-5-hydroxy-8-methyl-1,4-dihydro-4-oxoquinoline-3-carboxylic acid]
other
  melting point: 203 to 206 °C

## CCNC1([C@@H]2CCN(c3ccc4c(=O)c(C(=O)O)cn([C@@H]5C[C@@H]5F)c4c3C)C2)CC1 [Example 14, 7-[3-(R)-[1-(ethylamino)cyclopropyl]pyrrolidin-1-yl]-1-[2-(S)-fluoro-1-(R)-cyclopropyl]-8-methyl-1,4-dihydro-4-oxoquinoline-3-carboxylic acid]
[1]
  MIC: ≤ 0.003 µg/mL
[2]
  MIC: 0.05 µg/mL (≈ 0.121 µM)
[3]
  MIC: 0.012 µg/mL (≈ 0.029 µM)
[4]
  MIC: 0.1 µg/mL (≈ 0.242 µM)
[5]
  MIC: 0.05 µg/mL (≈ 0.121 µM)
[6]
  MIC: 0.2 µg/mL (≈ 0.484 µM)
[7]
  MIC: ≤ 0.003 µg/mL
[8]
  MIC: 0.012 µg/mL (≈ 0.029 µM)
[9]
  MIC: 0.006 µg/mL (≈ 0.0145 µM)
[10]
  MIC: 0.006 µg/mL (≈ 0.0145 µM)
[11]
  MIC: 0.1 µg/mL (≈ 0.242 µM)
[12]
  MIC: 0.025 µg/mL (≈ 0.0605 µM)
[13]
  MIC: ≤ 0.003 µg/mL
[14]
  MIC: ≤ 0.003 µg/mL
other
  melting point: 191 to 194 °C

## NC1([C@@H]2CCN(c3ccc4c(=O)c(C(=O)O)cn([C@@H]5C[C@@H]5F)c4c3)C2)CC1 [Example 5, 7-[3-(R)-(1-aminocyclopropyl)pyrrolidin-1-yl]-1-[2-(S)-fluoro-1-(R)-cyclopropyl]-1,4-dihydro-4-oxoquinoline-3-carboxylic acid]
other
  melting point: 251 to 253 °C

## CNC1([C@@H]2CCN(c3ccc4c(=O)c(C(=O)O)cn5c4c3OC[C@@H]5C)C2)CC1 [Example 13, 2,3-dihydro-3-(S)-methyl-10-[3-(R)-[1-(methylamino)cyclopropyl]pyrrolidin-1-yl]-7-oxo-7H-pyrido[1,2,3-de][1,4]benzoxazine-6-carboxylic acid]
other
  melting point: 227 to 229 °C

## NC1([C@@H]2CCN(c3ccc4c(=O)c(C(=O)O)cn(C5CC5)c4c3OC(F)F)C2)CC1 [Example 6, 7-[3-(R)-(1-aminocyclopropyl)pyrrolidin-1-yl]-1-cyclopropyl-8-difluoromethoxy-1,4-dihydro-4-oxoquinoline-3-carboxylic acid]
other
  melting point: 206 to 207.5 °C

## C[C@H]1COc2c(N3CC[C@@H](C4(N)CC4)C3)ccc3c(=O)c(C(=O)O)cn1c23 (as salt: salt) [Example 9, 10-[3-(R)-(1-aminocyclopropyl)pyrrolidin-1-yl]-2,3-dihydro-3-(S)-methyl-7-oxo-7H-pyrido[1,2,3-de][1,4]benzoxazine-6-carboxylic acid]
other
  melting point: 249 to 252 °C (dec.)

## O=C(O)c1cn(C2CC2)c2cc(N3CCNCC3)c(F)cc2c1=O [CPFX, ciprofloxacin, reference compound]
[1]
  MIC: ≤ 0.003 µg/mL
[2]
  MIC: 0.025 µg/mL (≈ 0.0754 µM)
[3]
  MIC: ≤ 0.003 µg/mL
[4]
  MIC: 0.005 µg/mL (≈ 0.0151 µM)
[5]
  MIC: 0.025 µg/mL (≈ 0.0754 µM)
[6]
  MIC: 0.78 µg/mL (≈ 2.35 µM)
[7]
  MIC: 0.1 µg/mL (≈ 0.302 µM)
[8]
  MIC: 3.13 µg/mL (≈ 9.45 µM)
[9]
  MIC: 0.2 µg/mL (≈ 0.604 µM)
[10]
  MIC: 0.006 µg/mL (≈ 0.0181 µM)
[11]
  MIC: 0.025 µg/mL (≈ 0.0754 µM)
[12]
  MIC: 0.78 µg/mL (≈ 2.35 µM)
[13]
  MIC: 0.1 µg/mL (≈ 0.302 µM)
[14]
  MIC: 1.56 µg/mL (≈ 4.71 µM)

## Cc1c(N2CC[C@@H](C3(N)CC3)C2)ccc2c(=O)c(C(=O)O)cn([C@@H]3C[C@@H]3F)c12 (as salt: HCl) (hydrate or solvate) [Example 1, 7-[3-(R)-(1-aminocyclopropyl)pyrrolidin-1-yl]-1-[2-(S)-fluoro-1-(R)-cyclopropyl]-1,4-dihydro-8-methyl-4-oxoquinoline-3-carboxylic acid]
other
  melting point: 228 to 230 °C

## Cc1c(N2CC[C@@H](C3(N)CC3)C2)cc(N)c2c(=O)c(C(=O)O)cn([C@@H]3C[C@@H]3F)c12 [Example 7, 5-amino-7-[3-(R)-(1-aminocyclopropyl)pyrrolidin-1-yl]-1-[2-(S)-fluoro-1-(R)-cyclopropyl]-1,4-dihydro-8-methyl-4-oxoquinoline-3-carboxylic acid]
other
  melting point: 240 to 242 °C (dec.)

## C[C@H]1COc2c(N3CCN(C)CC3)c(F)cc3c(=O)c(C(=O)O)cn1c23 [LVFX, levofloxacin, reference compound]
[1]
  MIC: 0.012 µg/mL (≈ 0.0332 µM)
[2]
  MIC: 0.1 µg/mL (≈ 0.277 µM)
[3]
  MIC: 0.012 µg/mL (≈ 0.0332 µM)
[4]
  MIC: 0.2 µg/mL (≈ 0.553 µM)
[5]
  MIC: 0.1 µg/mL (≈ 0.277 µM)
[6]
  MIC: 0.39 µg/mL (≈ 1.08 µM)
[7]
  MIC: 0.2 µg/mL (≈ 0.553 µM)
[8]
  MIC: > 6.25 µg/mL
[9]
  MIC: 0.39 µg/mL (≈ 1.08 µM)
[10]
  MIC: 0.025 µg/mL (≈ 0.0692 µM)
[11]
  MIC: 0.1 µg/mL (≈ 0.277 µM)
[12]
  MIC: 0.78 µg/mL (≈ 2.16 µM)
[13]
  MIC: 0.78 µg/mL (≈ 2.16 µM)
[14]
  MIC: 0.2 µg/mL (≈ 0.553 µM)

## NC1([C@@H]2CCN(c3ccc4c(=O)c(C(=O)O)cn([C@@H]5C[C@@H]5F)c4c3Cl)C2)CC1 [Example 16, 7-[3-(R)-(1-aminocyclopropyl)pyrrolidin-1-yl]-8-chloro-1-[2-(S)-fluoro-1-(R)-cyclopropyl]-1,4-dihydro-4-oxoquinoline-3-carboxylic acid]
other
  melting point: 128 to 130 °C

## COc1c(N2CC[C@@H](C3(N)CCC3)C2)ccc2c(=O)c(C(=O)O)cn([C@@H]3C[C@@H]3F)c12 (hydrate or solvate) [Example 19, 7-[3-(R)-(1-aminocyclobutyl)pyrrolidin-1-yl]-1-[2-(S)-fluoro-1-(R)-cyclopropyl]-8-methoxy-1,4-dihydro-4-oxoquinoline-3-carboxylic acid]
other
  melting point: 174 °C

## COc1c(N2CC[C@@H](C3(N)CC3)C2)cc(N)c2c(=O)c(C(=O)O)cn([C@@H]3C[C@@H]3F)c12 [Example 8, 5-amino-7-[3-(R)-(1-aminocyclopropyl)pyrrolidin-1-yl]-1-[2-(S)-fluoro-1-(R)-cyclopropyl]-1,4-dihydro-8-methoxy-4-oxoquinoline-3-carboxylic acid]
other
  melting point: 172 to 178 °C (dec.)

## N#Cc1c(N2CC[C@@H](C3(N)CC3)C2)ccc2c(=O)c(C(=O)O)cn([C@@H]3C[C@@H]3F)c12 [Example 18, 7-[3-(R)-(1-aminocyclopropyl)pyrrolidin-1-yl]-8-cyano-1-[2-(S)-fluoro-1-(R)-cyclopropyl]-1,4-dihydro-4-oxoquinoline-3-carboxylic acid]
other
  melting point: 138 to 140 °C

## CNC1([C@@H]2CCN(c3ccc4c(=O)c(C(=O)O)cn([C@@H]5C[C@@H]5F)c4c3C)C2)CC1 [Example 10, 1-[2-(S)-fluoro-1-(R)-cyclopropyl]-8-methyl-7-[3-(R)-[1-(methylamino)cyclopropyl]pyrrolidin-1-yl]-1,4-dihydro-4-oxoquinoline-3-carboxylic acid]
[1]
  MIC: ≤ 0.003 µg/mL
[2]
  MIC: 0.025 µg/mL (≈ 0.0626 µM)
[3]
  MIC: 0.006 µg/mL (≈ 0.015 µM)
[4]
  MIC: 0.1 µg/mL (≈ 0.25 µM)
[5]
  MIC: 0.025 µg/mL (≈ 0.0626 µM)
[6]
  MIC: 0.1 µg/mL (≈ 0.25 µM)
[7]
  MIC: ≤ 0.003 µg/mL
[8]
  MIC: 0.025 µg/mL (≈ 0.0626 µM)
[9]
  MIC: 0.006 µg/mL (≈ 0.015 µM)
[10]
  MIC: 0.006 µg/mL (≈ 0.015 µM)
[11]
  MIC: 0.05 µg/mL (≈ 0.125 µM)
[12]
  MIC: 0.012 µg/mL (≈ 0.03 µM)
[13]
  MIC: ≤ 0.003 µg/mL
[14]
  MIC: ≤ 0.003 µg/mL
other
  melting point: 223 to 224 °C

## COc1c(N2CC[C@@H](C3(N)CC3)C2)ccc2c(=O)c(C(=O)O)cn([C@@H]3C[C@@H]3F)c12 [Example 2, 7-[3-(R)-(1-aminocyclopropyl)pyrrolidin-1-yl]-1-[2-(S)-fluoro-1-(R)-cyclopropyl]-1,4-dihydro-8-methoxy-4-oxoquinoline-3-carboxylic acid]
[1]
  MIC: ≤ 0.003 µg/mL
[2]
  MIC: 0.05 µg/mL (≈ 0.125 µM)
[3]
  MIC: 0.012 µg/mL (≈ 0.0299 µM)
[4]
  MIC: 0.2 µg/mL (≈ 0.498 µM)
[5]
  MIC: 0.05 µg/mL (≈ 0.125 µM)
[6]
  MIC: 0.2 µg/mL (≈ 0.498 µM)
[7]
  MIC: ≤ 0.003 µg/mL
[8]
  MIC: 0.05 µg/mL (≈ 0.125 µM)
[9]
  MIC: 0.012 µg/mL (≈ 0.0299 µM)
[10]
  MIC: 0.012 µg/mL (≈ 0.0299 µM)
[11]
  MIC: 0.1 µg/mL (≈ 0.249 µM)
[12]
  MIC: 0.025 µg/mL (≈ 0.0623 µM)
[13]
  MIC: 0.006 µg/mL (≈ 0.0149 µM)
[14]
  MIC: 0.006 µg/mL (≈ 0.0149 µM)

## NC1([C@@H]2CCN(c3ccc4c(=O)c(C(=O)O)cn([C@@H]5C[C@@H]5F)c4n3)C2)CC1 [Example 4, 7-[3-(R)-(1-aminocyclopropyl)pyrrolidin-1-yl]-1-[2-(S)-fluoro-1-(R)-cyclopropyl]-1,4-dihydro-4-oxo-1,8-naphthylidine-3-carboxylic acid]
other
  melting point: 216 to 218 °C
